{"source": "patent US20150359798A1", "about": "“PIPERAZINYL DERIVATIVE REDUCES HIGH-FAT DIET-INDUCED ACCUMULATION OF FAT IN THE LIVERS, […]” (priority 2011, published 2015)", "key": {"[1]": {"target": "T1, Human recombinant HMG CoA reductase (Homo sapiens, UniProt P04035)", "T1 construct": "purchased Sigma-Aldrich (printed 'Sigma-Adrich') H7039; host or cells: E. coli", "T1 sequence (P04035 426-888 limits assumed)": "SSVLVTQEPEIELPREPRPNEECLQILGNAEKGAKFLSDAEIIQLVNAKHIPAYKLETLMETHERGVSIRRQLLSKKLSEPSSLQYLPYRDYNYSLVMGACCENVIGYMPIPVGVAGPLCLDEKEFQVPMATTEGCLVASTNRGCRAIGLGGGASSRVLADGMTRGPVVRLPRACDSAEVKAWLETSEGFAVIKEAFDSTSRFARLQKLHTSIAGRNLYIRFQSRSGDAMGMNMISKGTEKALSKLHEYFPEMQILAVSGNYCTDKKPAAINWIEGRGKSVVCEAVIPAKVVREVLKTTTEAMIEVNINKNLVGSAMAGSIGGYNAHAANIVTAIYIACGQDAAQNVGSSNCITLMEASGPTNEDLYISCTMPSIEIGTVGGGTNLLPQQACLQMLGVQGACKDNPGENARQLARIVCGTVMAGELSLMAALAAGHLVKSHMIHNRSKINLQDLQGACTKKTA", "experiment": "HMG CoA reductase activity, [14C]mevalonate formation", "format": "biochemical", "conditions": "10 μM", "experimental": "Human recombinant HMG CoA reductase expressed in E. coli (H7039, Sigma-Adrich, Mo, U.S.A.) was used. Human recombinant HMG-CoA reductase, examined by SDS-PAGE to be ≧90% in purity, 2-8 units/mg protein in activity and ˜76 kDa in molecular weight (H7039, Sigma-Adrich, St. Louis, Mo. U.S.A.), was used for determining the formation of [^14C]mevalonate. […] The reaction was initiated by the addition of 2.5 μM [^14C]HMG-CoA for another 20 minutes incubation period and terminated by further addition of 1 N HCl. An aliquot was removed by column and counted to determine the amount of [^14C]mevalonate formed (Ricera® Co. Ltd., Taipei, Taiwan)."}, "ApoA-I": {"test_system": "ApoA-I", "experiment": "ApoA-I expression in HepG2 cells", "format": "cell-based", "conditions": "HepG2, 10^−9-10^−5 M", "experimental": "(§1) HepG2 cells were treated with various concentrations of drugs for 24 hours. Reactions were terminated by washing twice with cold PBS, and the cells were then harvested, Proteins in the whole-cell lysate were homogenized in an ice-cold lysis buffer and a protease inhibitor (Sigma-Aldrich, St. Louis, Mo., U.S.A.). The homogenate was centrifuged at 90, 000 g for 15 minutes at 4° C., and supernatant was recovered as the total cellular protein. Cytosolic and membrane fractions of HepG2 cells were prepared using a. CNM (Cytosol Nuclear Membrane) compartment protein extraction kit (BioChain Institute Inc., Hayward, Calif., U.S.A.) according to the manufacturer's instructions. All of the fractionated protein solutions were stored at −80° C. until analysis. To measure the expression levels of proteins by drugs, the total cell protein was extracted after incubation with treatments for 24 hours and then Western blotting analysis was performed as described previously."}, "ROCK II": {"test_system": "ROCK II", "experiment": "ROCK II expression in HepG2 cells", "format": "cell-based", "experimental": "as §1, with “-80°” for “−80°”"}, "SR-B1": {"test_system": "SR-B1", "experiment": "HFD-induced hepatic SR-B1 expression (14-week experiment)", "format": "in vivo, mice", "conditions": "drinking KMUP-1", "experimental": "(§2) In the 14-week experiment, mice were fed a HFD from week 1 to week 14. During the 3 month experiments, KMUP-1 HCl (2.5 mg) was added to 200 ml tap water and) and drink for 14 weeks or for the last 6 weeks on mice or obese mice fed HFD, separately. 5 mice had free access to drinking water from week 1 to week 14 (protective group) or from week 8 to week 14 (treatment group). Tap water was used to normalize mineral nutrition (Scheme A).\nFor the expression of SR-B1, HMGR, PPARγ and ROCK isolated liver tissues were cut into small chips and placed into an extraction buffer (Tris 10 mM, pH 7.0, NaCl 140 mM, PMSF 2 mM, DTT 5 mM, NP-40 0.5%, pepstatin A 0.05 mM and leupeptin 0.2 mM) for hepatic protein extraction, and centrifuged at 20,000 g for 30 minutes. The obtained protein extract was boiled to a ratio of 4:1 with a sample buffer (Tris 100 mM, pH 6.8, glycerol 20%, SDS 4% and bromophenol blue 0.2%). Electrophoresis was performed using 10% SDS-polyacrylamide gel (1 hour, 100 V, 40 mA, 20 μg protein per lane).\nSeparated proteins, after 3 repeated centrifugations to discard up-layer tissue lipid inpurity, were transferred to PVDF membranes treated with 5% fat-free milk powder to block the nonspecific IgGs (90 minutes, 100 V) and incubated for 1 hour with specific protein antibody. The blot was then incubated with anti-mouse or anti-goat IgG linked to alkaline phosphatase (1:1000) for 1 hour."}, "Rho-kinase": {"test_system": "Rho-kinase", "experiment": "Table 3 Rho-kinase (% of control)", "format": "cell-based", "conditions": "control group = 100 (%)"}, "HSL": {"test_system": "HSL", "experiment": "HSL immunoreactivity in HepG2 cells", "format": "cell-based"}, "TNF-α": {"test_system": "TNF-α", "experiment": "IHC staining of TNF-α in steatohepatitis liver", "format": "in vivo, mice", "conditions": "2.5 mg/kg/day, 14 weeks (protection) and 6 weeks (treatment)", "experimental": "as §2\nFor IHC of MMP-9/TNFα, HSL/p-HSL/ATGL and eNOS/IL-10, antigen retrieval of de-paraffinated sections was performed in Dako target retrieval solution, pH 9.0, in a vegetable steamer followed by the quenching of endogenous peroxidase activity with 3.0% H2O2 in methanol. Sections were then incubated with specific primary antibodies overnight at 4° C. in a humidified chamber. The antibodies used included rabbit polyclonal anti-eNOS (1:50 dilution) (Abcam, Cambridge, UK) or rabbit monoclonal anti-cleaved caspase-3 (1:50 dilution) (Cell Signaling, USA). The sections were then examined using a DAKO REAL EnVision™ Detection System kit (DAKO, Carpinteria, Calif.) and counterstained with hematoxylin. Images were obtained through a Nikon Eclipse TE200-S microscope."}, "ABCA1 [2]": {"test_system": "ABCA1", "experiment": "ABCA1 expression in liver of HFD mice (8 weeks)", "format": "in vivo", "conditions": "animals treated with HFD"}, "PKG": {"test_system": "PKG", "experiment": "Hepatic PKG expression (14-week experiment)", "format": "in vivo, mice", "conditions": "drinking KMUP-1; protection and treatment groups"}, "ABCA1 [3]": {"test_system": "ABCA1", "experiment": "ABCA1 expression in HepG2 cells", "format": "cell-based", "experimental": "as §1"}, "LDLR": {"test_system": "LDLR", "experiment": "Fluorescence staining of LDLRs in HepG2 cells", "format": "cell-based", "experimental": "HepG2 cells were used to determine the cellular protein expression of LDLRs in the presence of exogenous LDL (500 μg/mL) Bodipy-493/503 ([…]) overnight at 4° C., followed by merger of obtained BODIPY- and LDL-images to analyze the location of LDLRs. All images were collected and analyzed by scanning with Nikon Eclipse TE200-S microscope (Tokyo, Japan)."}}}
{"smiles": "Cn1c(=O)c2c(ncn2CCN2CCN(c3ccccc3Cl)CC2)n(C)c1=O", "note": "[KMUP-1, 7-[2-[4-(2-chlorophenyl)piperazinyl]ethyl]-1,3-dimethyl xanthine]", "values": [{"measurement": "[14C]mevalonate formation", "setting": "[1]", "value": "could not reduce"}, {"measurement": "ApoA-I expression", "setting": "ApoA-I", "value": "concentration-dependently increased"}, {"measurement": "ROCK II protein expression", "setting": "ROCK II; HepG2, 10^−9-10^−5 M", "value": "concentration-dependently reduced"}, {"measurement": "Rp-8-pCPT-cGMPS-increased ROCK II expression", "setting": "ROCK II; HepG2, combination with KMUP-1 10 μM", "value": "inhibited"}, {"measurement": "GGPP- and FPP-increased RhoA/ROCK II expression", "setting": "ROCK II; HepG2, in the presence of exogenous GGPP and FPP, 10^−9-10^−5M", "value": "attenuated"}, {"measurement": "HFD-induced hepatic SR-B1 expression", "setting": "SR-B1", "value": "inhibit"}, {"measurement": "Rho-kinase", "setting": "Rho-kinase; 0.1 μM", "value": "82.8 ± 7.8", "unit": "%"}, {"measurement": "Rho-kinase", "setting": "Rho-kinase; 1.0 μM", "value": "78.4 ± 6.9", "unit": "%"}, {"measurement": "Rho-kinase", "setting": "Rho-kinase; 10 μM", "value": "75.8 ± 6.4", "unit": "%"}, {"measurement": "HSL immunoreactivity (green fluorescence)", "setting": "HSL", "value": "increased"}, {"measurement": "TNF-α immunohistochemistry on fatty liver slices", "setting": "TNF-α", "value": "inhibited partial"}, {"measurement": "ABCA1 in liver", "setting": "ABCA1 [2]", "value": "activated"}, {"measurement": "hepatic PKG expression", "setting": "PKG", "value": "promote"}, {"measurement": "expression of ABCA1", "setting": "ABCA1 [3]; HepG2, 10^−9-10^−5 M", "value": "increased"}, {"measurement": "FPP- or GGPP-suppressed expression of ABCA1", "setting": "ABCA1 [3]; HepG2, KMUP-1 10^−9-10^−5 M with FPP or GGPP", "value": "reversed"}, {"measurement": "ABCA1 expression (FIG. 24D)", "setting": "ABCA1 [3]; HepG2, simvastatin, KMUP-1, Y27632 10^−5M, C3 exoenzyme", "value": "increased"}, {"measurement": "LDLR (green fluorescence) expression", "setting": "LDLR; HepG2, 24 hours, KMUP-1 10^−6, 10^−5, 10^−4 M, simvastatin 10^−5 M", "value": "increased"}, {"measurement": "LDLR fluorescence at high concentration", "setting": "LDLR; HepG2, concentrations >10^−4 M, near the viability range", "value": "decline in fluoresence"}]}
